From paper PMC12067093, “Discovery and optimisation of a covalent ligand for TRIM25 and its application to targeted protein ubiquitination” (Chemical Science, 2025)

Assays:
[1] = target: T1, BRD4 (ubiquitination by TRIM25) (Homo sapiens, UniProt O60885+Q14258); experiment: In vitro targeted protein ubiquitination time course assay for BRD4; type: biochemical; conditions: TRIM25 4 μM pre-labelled with compound 50 μM, 20 h, 4 °C, excess removed (HB1a 4 μM added directly); 60 min at 30 °C
T1 construct: Recombinant full-length BRD4 (short isoform); Full-length TRIM25 (4 μM) was pre-labelled with either DMSO or compound HB1, HB2 or HB3; made in house; host or cells: Sf9 insect cells (full-length TRIM25); UBA1 and UBCH5B were made as previously described
T1 sequence (Q14258 whole entry, other chains not shown, canonical isoform): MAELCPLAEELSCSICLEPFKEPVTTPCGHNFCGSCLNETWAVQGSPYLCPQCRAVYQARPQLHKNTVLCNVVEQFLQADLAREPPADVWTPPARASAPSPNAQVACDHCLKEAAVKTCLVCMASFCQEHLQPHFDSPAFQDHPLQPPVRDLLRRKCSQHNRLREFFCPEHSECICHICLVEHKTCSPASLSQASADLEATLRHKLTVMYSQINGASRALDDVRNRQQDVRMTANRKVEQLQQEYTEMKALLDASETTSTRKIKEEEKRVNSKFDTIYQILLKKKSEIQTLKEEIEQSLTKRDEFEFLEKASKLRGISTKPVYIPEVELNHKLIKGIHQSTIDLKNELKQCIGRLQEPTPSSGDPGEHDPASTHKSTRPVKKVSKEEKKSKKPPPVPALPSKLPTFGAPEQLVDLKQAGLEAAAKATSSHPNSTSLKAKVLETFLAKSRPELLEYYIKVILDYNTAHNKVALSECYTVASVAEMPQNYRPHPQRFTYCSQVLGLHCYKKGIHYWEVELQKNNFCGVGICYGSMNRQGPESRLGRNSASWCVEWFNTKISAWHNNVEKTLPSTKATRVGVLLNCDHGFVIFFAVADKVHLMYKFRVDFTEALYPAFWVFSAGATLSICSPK
Protocol: 1 containing 500 mM DTT (ThermoFisher Scientific, R0861). Timepoint at 0 min
2 indicates the sample taken prior to the addition of ATP. Samples were analysed by
3 SDS-PAGE and imaged by Coomassie staining, and using the Odyssey CLx Infrared
4 Imaging System (Li-Cor).
6 For targeted protein ubiquitination assays with compounds HB1 – HB3, His10-TRIM25
8 DMSO) or compound HB1, HB2 or HB3 (50 µM, 1% DMSO) in buffer 50 mM HEPES
9 pH 7.5, 150 mM NaCl, 0.5 mM TCEP for 20 h at 4 °C. Protein-compound complexes
11 capture buffer 50 mM Tris pH 7.5, 150 mM NaCl, 5 mM MgCl2, 20 mM imidazole, 0.5
12 mM TCEP, 0.5% IGEPAL for 2 h at 4 °C, with rotation. Beads were washed once with
13 capture buffer to remove excess unreacted compound. Ubiquitination assay reaction
14 mixture comprised components as described above, with the addition of 4 µM BRD4
15 substrate. For reaction with control compound HB1a (JQ1-2PEG), 4 µM HB1a was
16 added directly to the ubiquitination assay reaction mixture. Samples were analysed as
17 described above, and by western blotting against BRD4 (Abcam, ab128874, 1:1000),
18 which was detected by anti-rabbit-HRP secondary antibody (Dako, P0399, 1:2000).
19 Blots were developed in Amersham ECL Western Blotting Detection Reagent (Cytiva,
20 RPN2106), imaged on a ChemiDoc MP Imaging System (Bio-Rad), and bands were
21 analysed in ImageLab (Bio-Rad). […]

[2] = target: T2, TRIM25 PRYSPRY and BRD4 BD2 ternary complex (Homo sapiens, UniProt O60885+Q14258); experiment: Recombinant protein ternary complex pull-down; type: binding; conditions: TRIM25 PRYSPRY pre-labelled with compound 50 μM overnight, intermediate wash step, then BRD4 BD2
T2 construct: made in house; host or cells: Sf9 insect cells (TRIM25 PRYSPRY)
T2 sequence (Q14258 435-630, other chains not shown): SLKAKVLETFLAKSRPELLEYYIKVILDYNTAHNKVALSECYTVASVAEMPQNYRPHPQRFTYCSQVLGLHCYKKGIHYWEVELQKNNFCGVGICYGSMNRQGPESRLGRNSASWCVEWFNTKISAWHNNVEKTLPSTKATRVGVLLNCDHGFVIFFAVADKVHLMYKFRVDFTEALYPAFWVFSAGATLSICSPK
Protocol: 3 25 mM HEPES, 50 mM NaCl for 20 h at 4 °C, before purification by gel filtration into
4 buffer 20 mM Bis-Tris pH 7.5, 150 mM NaCl, 0.5 mM TCEP. Commercially available
5 sitting drop crystallization screens were dispensed at 20 °C using an automated
6 Mosquito machine (TTP Labtech). Crystals grew from a pre-labelled protein-ligand
8 drops containing 100 nL protein-ligand complex and 100 nL reservoir solution. For X-
9 ray data acquisition, crystals were cryoprotected with perfluoropolyether cryo oil
10 (Hampton Research, HR2-814). Diffraction data were collected on beamline I04 (λ =
11 0.9537 Å) at Diamond Light Source (Oxford, UK), processed using DIALS17 and
12 merged and scaled using AIMLESS.18 The structure of the complex was solved by
13 molecular replacement using the available TRIM25 PRYSPRY structure (6FLM)10 as
15 in Coot20 and refined using Refmac21 and Phenix.19 Coordinates and structure factors
16 are deposited in the Protein Data Bank under accession code 9I0T. Further details on
17 data collection and refinement statistics are summarised in Supplementary Table 1.
20 Recombinant TRIM25 PRYSPRY (100 µM) in 25 mM HEPES pH 7.5, 50 mM NaCl,
23 acquired with Topspin (Bruker) at timepoint 0 (immediately after mixing protein with
24 compound), and after 4 h incubation.
26 Recombinant protein ternary complex pull-down assays
27 His10-TRIM25 or His6-TRIM25 PRYSPRY (4 µM) was pre-labelled with either DMSO
28 (1%) or heterobifunctional compounds (HB1, HB2 or HB3, 50 µM, 1% DMSO) and
29 captured on His Mag Sepharose Ni magnetic beads, and washed once to remove
30 excess unreacted compound, as described above.
32 Substrate (BRD4 or BRD4 BD2) (4 µM, assuming 1:1 with on-bead captured TRIM25-
33 compound complex) was added to the on-bead captured TRIM25-compound complex,
1 and incubated in capture buffer 50 mM Tris pH 7.5, 150 mM NaCl, 5 mM MgCl2, 20 mM
2 imidazole, 0.5 mM TCEP, 0.5% IGEPAL for 2 h at 4 °C, with rotation. Beads were
3 washed three times with 500 µL capture buffer, and mixed with 12 µL NuPAGE LDS
4 sample buffer (1x, Invitrogen, NP0007). Samples were analysed by SDS-PAGE and […]

Row | Structure (SMILES) | targeted ubiquitination of BRD4 by TRIM25 [1] | in vitro ternary complex formation (pull-down) [2]
1 | Cc1cc(C(=O)N2CCCN(C(=O)CCl)CC2)ccc1-c1ccccc1 [Compound 10] | no targeted ubiquitination of BRD4 was observed | 
2 | Cc1cc(C(=O)N2CCCN(C(=O)CCl)CC2)ccc1-c1cccc(C(=O)NCCOCCOCCNC(=O)C[C@@H]2N=C(c3ccc(Cl)cc3)c3c(sc(C)c3C)-n3c(C)nnc32)c1 [HB1] | heterobifunctional compound-induced ubiquitination of BRD4 | Ternary complex formation was observed
3 | Cc1cc(C(=O)N2CCCN(C(=O)CCl)CC2)ccc1-c1cccc(C(=O)NCCOCCOCCOCCNC(=O)C[C@@H]2N=C(c3ccc(Cl)cc3)c3c(sc(C)c3C)-n3c(C)nnc32)c1 [HB2] | heterobifunctional compound-induced ubiquitination of BRD4 | Ternary complex formation was observed
4 | Cc1cc(C(=O)N2CCCN(C(=O)CCl)CC2)ccc1-c1cccc(C(=O)NCCOCCOCCOCCOCCNC(=O)C[C@@H]2N=C(c3ccc(Cl)cc3)c3c(sc(C)c3C)-n3c(C)nnc32)c1 [HB3] | heterobifunctional compound-induced ubiquitination of BRD4 | Ternary complex formation was observed
